Assay results from ChEMBL document CHEMBL6092206, “Discovery and Characterization of BAY-184: A New Potent and Selective Acylsulfonamide-Benzofuran In Vivo-Active KAT6AB Inhibitor” (J Med Chem, 2024).
Activity calls are given as the source filed them. The rule behind the calls is not given here.

Assays:
[1] = Toxicity in female estradiol-primed NMRI mouse assessed as tolerability at 50 to 10 mg/kg, po administered twice daily measured at 2 to 3 days; format: organism-based; details: in vivo, dose lower 50 mg/kg, time lower 2 day, dose upper 10 mg/kg, time upper 3 day
[2] = target: T1, Histone acetyltransferase KAT8 (Homo sapiens, UniProt Q9H7Z6); experiment: Inhibition of full length N-terminal GST-tagged human recombinant KAT8 (174 to 449 residues) using H4-derived peptide as substrate incubated for 60 mins in presence of AcCoA by TR-FRET assay; parameters: species or system Sf9
T1 sequence (Q9H7Z6 whole entry): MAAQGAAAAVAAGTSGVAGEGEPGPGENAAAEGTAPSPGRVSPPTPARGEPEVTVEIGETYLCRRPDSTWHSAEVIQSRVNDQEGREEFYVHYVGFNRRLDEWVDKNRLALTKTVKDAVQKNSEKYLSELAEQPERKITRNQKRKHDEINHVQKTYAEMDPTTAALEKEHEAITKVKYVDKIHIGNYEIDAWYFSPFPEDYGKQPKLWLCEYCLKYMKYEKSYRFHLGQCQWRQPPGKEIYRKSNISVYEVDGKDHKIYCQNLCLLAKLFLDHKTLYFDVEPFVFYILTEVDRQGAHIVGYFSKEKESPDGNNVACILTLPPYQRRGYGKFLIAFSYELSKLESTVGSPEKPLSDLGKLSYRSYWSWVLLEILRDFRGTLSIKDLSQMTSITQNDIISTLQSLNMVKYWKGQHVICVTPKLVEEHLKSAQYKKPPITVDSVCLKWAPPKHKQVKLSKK

[3] = Metabolic stability in dog liver microsome assessed as maximum bioavailability of the drug measured for 2 to 60 mins by LC-MS/MS analysis; format: ADME, Canis lupus familiaris; details: liver microsomes, time 2-60 min, read-out: Fmax
[4] = Tmax in male Wistar rat at 1 mg/kg, po measured upto 24 hrs by LC-MS/S analysis; format: ADME, organism-based; details: in vivo
HCC1806 = experiment: Antiproliferative activity against human HCC1806 cells assessed as inhibition of cell growth incubated for 6 days by alamar blue staining based assay relative to control; format: functional; details: time 6 day
[5] = Oral bioavailability in male Wistar rat at 1 mg/kg measured upto 24 hrs by LC-MS/S analysis; format: ADME, organism-based; details: in vivo
MCF7 = experiment: Antiproliferative activity against human MCF7 cells assessed as inhibition of cell growth incubated for 6 days by alamar blue staining based assay relative to control; format: functional; details: time 6 day
[6] = Metabolic stability in dog hepatocyte assessed as clearance measured for 2 to 90 mins by LC-MS/MS analysis; format: ADME, cell-based, Canis lupus familiaris; details: hepatocytes, time 2-90 min
ZR-75-1 = experiment: Antitumor activity against human ZR-75-1 cells xenografted in female estradiol-primed NMRI mouse assessed as reduction in H3K23 acetylation level in tumor at 100 mg/kg, po administered twice daily measured after 1 to 3 hrs by immunohistochemical analysis; format: functional, organism-based; details: time 1-3 hrs
[7] = Metabolic stability in human hepatocyte assessed as maximum bioavailability of the drug measured for 2 to 90 mins by LC-MS/MS analysis; format: ADME; details: hepatocytes, time 2-90 min, read-out: Fmax
[8] = Mutagenicity in Salmonella typhimurium TA1537 by Ames test; format: toxicity; details: salmonella enterica subsp. enterica serovar typhimurium
[9] = target: Histone acetyltransferase p300 (Homo sapiens, UniProt Q09472); experiment: Inhibition of GST-tagged human recombinant p300 (965 to 1810 residues) expressed in Sf9 insect cells using H3-derived peptide as substrate incubated for 30 mins in presence of AcCoA by TR-FRET assay
[10] = Metabolic stability in human liver microsome assessed as clearance measured for 2 to 60 mins by LC-MS/MS analysis; format: ADME; details: microsomes, time 2-60 min
[11] = Mutagenicity in Salmonella typhimurium TA98 in presence of S9 fraction by Ames test; format: toxicity, subcellular; details: salmonella enterica subsp. enterica serovar typhimurium
[12] = Metabolic stability in dog liver microsome assessed as clearance measured for 2 to 60 mins by LC-MS/MS analysis; format: ADME, Canis lupus familiaris; details: microsomes, time 2-60 min
[13] = Metabolic stability in mouse hepatocyte assessed as clearance measured for 2 to 90 mins by LC-MS/MS analysis; format: ADME, cell-based; details: hepatocytes, time 2-90 min
[14] = Stability in rat plasma assessed as parent compound remaining after 4 hrs; format: ADME, cell-free
[15] = Stability of compound in PBS buffer at pH 7 measured for 24 hrs by HPLC analysis; format: physicochemical; details: pH 7, 24 h
[16] = Stability of compound in HCL buffer at pH 1 measured for 24 hrs by HPLC analysis; format: physicochemical; details: pH 1, 24 h
[17] = Metabolic stability in rat hepatocyte assessed as clearance measured for 2 to 90 mins by LC-MS/MS analysis; format: ADME, cell-based; details: hepatocytes, time 2-90 min
[18] = Mutagenicity in Salmonella typhimurium TA100 by Ames test; format: toxicity; details: salmonella enterica subsp. enterica serovar typhimurium
[19] = Metabolic stability in rat liver microsome assessed as maximum bioavailability of the drug measured for 2 to 60 mins by LC-MS/MS analysis; format: ADME; details: liver microsomes, time 2-60 min, read-out: Fmax
LCLC-97TM1 = experiment: Antiproliferative activity against human LCLC-97TM1 cells assessed as inhibition of cell proliferation incubated for 6 days by alamar blue staining based assay; format: functional; details: time 6.0 day
[20] = Metabolic stability in rat liver microsome assessed as clearance measured for 2 to 60 mins by LC-MS/MS analysis; format: ADME; details: microsomes, time 2-60 min
[21] = target: T2, Histone acetyltransferase KAT6A (Homo sapiens, UniProt Q92794); experiment: Inhibition of KAT6A in human ZR-75-1 cells assessed as reduction in H3K23ac level at 1 uM measured after 144 hrs by Western blot analysis; format: cell-based
[22] = target: T2, Histone acetyltransferase KAT6A; experiment: Inhibition of KAT6A in human ZR-75-1 cells assessed as reduction in H3K23ac level at 1 uM incubated at 10 to 2880 mins by Western blot analysis; format: cell-based; details: time 10-2880 min
[23] = Volume of distribution at steady state in male Wistar rat at 0.5 mg/kg, iv or 1 mg/kg, po measured upto 24 hrs by LC-MS/S analysis; format: ADME, organism-based; details: in vivo
[24] = Volume of distribution at steady state in mouse at 0.5 mg/kg, iv; format: ADME, organism-based; details: in vivo, read-out: Vdss
[25] = Mutagenicity in Salmonella typhimurium TA98 by Ames test; format: toxicity; details: salmonella enterica subsp. enterica serovar typhimurium
[26] = Stability in human plasma assessed as parent compound remaining after 4 hrs; format: ADME, cell-free
MDA-MB-436 = experiment: Antiproliferative activity against human MDA-MB-436 cells assessed as inhibition of cell growth incubated for 6 days by alamar blue staining based assay relative to control; format: functional; details: time 6 day
[27] = Antiproliferative activity against human KPL-1 cells assessed as inhibition of cell growth incubated for 6 days by alamar blue staining based assay relative to control; format: functional; details: time 6 day
[28] = Mutagenicity in Salmonella typhimurium TA1535 by Ames test; format: toxicity; details: salmonella enterica subsp. enterica serovar typhimurium
[29] = Metabolic stability in mouse liver microsome assessed as maximum bioavailability of the drug measured for 2 to 60 mins by LC-MS/MS analysis; format: ADME; details: liver microsomes, time 2-60 min, read-out: Fmax
[30] = AUC in mouse at 0.5 mg/kg, iv; format: ADME, organism-based; details: in vivo
[31] = Clearance in mouse at 0.5 mg/kg, iv; format: ADME, organism-based; details: in vivo
[32] = Plasma protein binding in rat assessed as unbound fraction equilibrium dialysis based LC-MS/MS analysis; format: ADME, cell-free
HCC1428 = experiment: Antiproliferative activity against human HCC1428 cells assessed as inhibition of cell growth incubated for 6 days by alamar blue staining based assay relative to control; format: functional; details: time 6 day

T2 sequence (Q92794 whole entry, looked up): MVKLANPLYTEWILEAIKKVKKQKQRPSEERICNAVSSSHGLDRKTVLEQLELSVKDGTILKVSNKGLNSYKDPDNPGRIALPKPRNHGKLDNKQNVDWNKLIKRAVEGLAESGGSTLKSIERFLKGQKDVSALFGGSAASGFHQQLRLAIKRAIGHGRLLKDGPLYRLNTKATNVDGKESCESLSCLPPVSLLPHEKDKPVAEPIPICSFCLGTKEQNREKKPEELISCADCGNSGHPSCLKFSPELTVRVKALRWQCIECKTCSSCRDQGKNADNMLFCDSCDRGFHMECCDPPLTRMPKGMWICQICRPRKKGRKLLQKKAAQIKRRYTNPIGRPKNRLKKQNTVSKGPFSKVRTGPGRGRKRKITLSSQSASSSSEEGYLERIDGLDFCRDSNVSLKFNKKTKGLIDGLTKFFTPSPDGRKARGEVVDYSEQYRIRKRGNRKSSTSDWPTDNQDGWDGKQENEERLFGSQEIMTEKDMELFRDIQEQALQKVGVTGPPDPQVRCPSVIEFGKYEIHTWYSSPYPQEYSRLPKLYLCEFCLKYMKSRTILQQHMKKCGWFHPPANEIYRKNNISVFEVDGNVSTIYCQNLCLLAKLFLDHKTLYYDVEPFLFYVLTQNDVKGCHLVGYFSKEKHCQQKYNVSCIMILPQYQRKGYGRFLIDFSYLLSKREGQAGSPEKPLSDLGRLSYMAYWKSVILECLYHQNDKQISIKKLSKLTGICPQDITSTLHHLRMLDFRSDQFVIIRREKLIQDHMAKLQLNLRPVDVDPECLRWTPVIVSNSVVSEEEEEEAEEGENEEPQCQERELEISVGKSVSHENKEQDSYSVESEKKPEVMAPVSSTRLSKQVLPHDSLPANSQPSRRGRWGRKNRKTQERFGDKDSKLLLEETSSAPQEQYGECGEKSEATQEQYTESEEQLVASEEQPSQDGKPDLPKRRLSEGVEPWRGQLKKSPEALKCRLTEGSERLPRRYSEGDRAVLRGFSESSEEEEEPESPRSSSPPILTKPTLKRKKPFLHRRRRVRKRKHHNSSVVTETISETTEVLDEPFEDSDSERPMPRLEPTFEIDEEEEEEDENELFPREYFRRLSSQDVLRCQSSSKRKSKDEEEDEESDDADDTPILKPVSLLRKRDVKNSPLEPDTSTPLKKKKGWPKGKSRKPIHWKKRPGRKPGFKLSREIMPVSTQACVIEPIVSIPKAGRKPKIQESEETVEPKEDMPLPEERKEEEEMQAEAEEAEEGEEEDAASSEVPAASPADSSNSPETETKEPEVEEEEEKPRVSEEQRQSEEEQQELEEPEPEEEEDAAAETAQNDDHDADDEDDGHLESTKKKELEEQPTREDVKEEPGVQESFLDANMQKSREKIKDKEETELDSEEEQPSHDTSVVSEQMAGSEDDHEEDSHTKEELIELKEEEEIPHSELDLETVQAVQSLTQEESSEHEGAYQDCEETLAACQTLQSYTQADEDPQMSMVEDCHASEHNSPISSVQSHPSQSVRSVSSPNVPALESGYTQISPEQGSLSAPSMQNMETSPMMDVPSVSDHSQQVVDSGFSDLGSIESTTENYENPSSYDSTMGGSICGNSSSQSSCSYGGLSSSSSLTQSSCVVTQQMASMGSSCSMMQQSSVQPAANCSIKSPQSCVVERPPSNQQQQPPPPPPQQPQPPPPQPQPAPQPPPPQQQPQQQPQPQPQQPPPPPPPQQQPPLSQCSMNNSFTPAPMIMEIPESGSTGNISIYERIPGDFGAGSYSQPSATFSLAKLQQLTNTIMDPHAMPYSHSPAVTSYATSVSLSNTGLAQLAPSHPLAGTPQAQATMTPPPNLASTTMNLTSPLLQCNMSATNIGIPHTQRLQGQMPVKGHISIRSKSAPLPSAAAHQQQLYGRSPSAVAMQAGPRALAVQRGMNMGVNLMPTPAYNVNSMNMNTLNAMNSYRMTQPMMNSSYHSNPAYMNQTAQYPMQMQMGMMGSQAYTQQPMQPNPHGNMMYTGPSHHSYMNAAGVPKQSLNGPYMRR
Chain of Histone acetyltransferase p300 (Q09472 whole entry, the tested form may be a part): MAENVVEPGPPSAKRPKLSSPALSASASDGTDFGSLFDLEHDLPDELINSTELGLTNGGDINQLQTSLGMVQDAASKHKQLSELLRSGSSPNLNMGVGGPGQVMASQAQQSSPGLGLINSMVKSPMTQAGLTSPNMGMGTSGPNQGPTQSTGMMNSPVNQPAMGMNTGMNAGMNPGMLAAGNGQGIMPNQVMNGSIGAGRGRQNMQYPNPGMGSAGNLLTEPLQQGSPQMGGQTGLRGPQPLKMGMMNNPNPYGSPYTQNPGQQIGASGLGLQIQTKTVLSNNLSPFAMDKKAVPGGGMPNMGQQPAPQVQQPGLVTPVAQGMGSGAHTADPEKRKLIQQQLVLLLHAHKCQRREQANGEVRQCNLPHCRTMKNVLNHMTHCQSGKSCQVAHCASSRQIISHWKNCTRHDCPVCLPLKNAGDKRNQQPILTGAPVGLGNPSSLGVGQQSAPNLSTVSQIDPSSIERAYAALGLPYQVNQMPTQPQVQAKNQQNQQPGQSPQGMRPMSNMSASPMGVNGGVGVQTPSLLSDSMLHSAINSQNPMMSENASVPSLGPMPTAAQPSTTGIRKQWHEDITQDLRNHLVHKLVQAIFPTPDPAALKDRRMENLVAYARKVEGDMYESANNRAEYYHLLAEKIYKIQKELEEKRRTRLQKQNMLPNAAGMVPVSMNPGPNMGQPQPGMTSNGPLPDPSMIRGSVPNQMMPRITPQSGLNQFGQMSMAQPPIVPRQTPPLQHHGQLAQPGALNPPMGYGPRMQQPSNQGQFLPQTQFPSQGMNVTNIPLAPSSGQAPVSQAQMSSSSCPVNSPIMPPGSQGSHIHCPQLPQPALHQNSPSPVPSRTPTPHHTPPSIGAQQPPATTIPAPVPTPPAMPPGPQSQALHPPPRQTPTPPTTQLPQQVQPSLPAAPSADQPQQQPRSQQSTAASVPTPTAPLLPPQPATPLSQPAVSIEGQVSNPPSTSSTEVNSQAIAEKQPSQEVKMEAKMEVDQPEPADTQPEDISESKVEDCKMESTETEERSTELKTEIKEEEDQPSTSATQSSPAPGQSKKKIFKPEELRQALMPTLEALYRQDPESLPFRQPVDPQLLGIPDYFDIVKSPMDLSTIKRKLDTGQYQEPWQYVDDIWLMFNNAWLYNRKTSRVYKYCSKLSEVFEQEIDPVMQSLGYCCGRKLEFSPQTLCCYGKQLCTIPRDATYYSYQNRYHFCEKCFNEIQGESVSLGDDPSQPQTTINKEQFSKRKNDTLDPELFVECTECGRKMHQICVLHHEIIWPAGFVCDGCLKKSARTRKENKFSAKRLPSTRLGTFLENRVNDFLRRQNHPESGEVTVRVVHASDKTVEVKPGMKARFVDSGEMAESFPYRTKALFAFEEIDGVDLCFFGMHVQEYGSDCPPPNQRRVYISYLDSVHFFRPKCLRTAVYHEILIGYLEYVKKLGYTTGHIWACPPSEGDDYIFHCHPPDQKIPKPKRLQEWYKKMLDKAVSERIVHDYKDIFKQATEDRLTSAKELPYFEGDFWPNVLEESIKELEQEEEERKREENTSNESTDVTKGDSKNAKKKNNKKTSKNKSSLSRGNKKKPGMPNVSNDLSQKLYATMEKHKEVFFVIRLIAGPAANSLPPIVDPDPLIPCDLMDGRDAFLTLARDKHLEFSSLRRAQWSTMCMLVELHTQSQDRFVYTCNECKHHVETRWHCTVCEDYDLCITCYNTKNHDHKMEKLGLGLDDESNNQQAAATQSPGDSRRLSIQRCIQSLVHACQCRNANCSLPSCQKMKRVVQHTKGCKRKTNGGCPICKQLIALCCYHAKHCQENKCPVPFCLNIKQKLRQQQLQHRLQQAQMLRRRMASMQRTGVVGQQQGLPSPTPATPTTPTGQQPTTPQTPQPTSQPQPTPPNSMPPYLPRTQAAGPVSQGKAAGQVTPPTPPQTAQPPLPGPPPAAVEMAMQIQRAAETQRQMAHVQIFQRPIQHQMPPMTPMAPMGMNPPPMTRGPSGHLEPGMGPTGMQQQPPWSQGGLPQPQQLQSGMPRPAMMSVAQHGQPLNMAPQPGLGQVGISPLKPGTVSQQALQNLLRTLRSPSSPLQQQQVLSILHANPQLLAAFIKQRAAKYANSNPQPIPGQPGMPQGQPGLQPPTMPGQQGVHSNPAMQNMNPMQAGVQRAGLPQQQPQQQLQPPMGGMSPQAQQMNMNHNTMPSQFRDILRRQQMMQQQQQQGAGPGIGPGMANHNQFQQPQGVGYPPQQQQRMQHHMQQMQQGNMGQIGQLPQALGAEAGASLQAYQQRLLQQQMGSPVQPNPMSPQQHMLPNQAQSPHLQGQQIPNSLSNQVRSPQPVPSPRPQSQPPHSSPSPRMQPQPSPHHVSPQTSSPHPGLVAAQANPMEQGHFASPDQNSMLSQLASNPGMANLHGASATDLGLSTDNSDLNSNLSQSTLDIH

IC50 [2]: > 10 µM | Fh [3]: 80% | Tmax [4]: 30 min | bioavailability [5]: 60% | CLH [6]: 16.5 mL/min/kg | Fh [7]: 25% | IC50 [9]: > 10 µM | CLH [10]: 12.8 mL/min/kg | CLH [12]: 6.83 mL/min/kg | CLH [13]: 60 mL/min/kg | Stability [14]: Stable | Stability [15]: Stable | Stability [16]: Stable | CLH [17]: 41.7 mL/min/kg | Fh [19]: 28% | CLH [20]: 50 mL/min/kg | inhibition [21]: inactive | inhibition [22]: Active | Vdss [23]: 0.13 L/kg | Vd [24]: 0.32 L/kg | Stability [26]: Stable | Fh [29]: 29% | AUC [30]: 2.5 kg·h/L | clearance [31]: 9.33 mL/min/kg | Fu [32]: 0.048%
SMILES: CN(C)c1ccc2cc(C(=O)NS(=O)(=O)c3ccccc3-c3ccccc3)oc2c1
Activity [1]: Non-toxic | inhibition (INH) (HCC1806): 0% | inhibition (INH) (MCF7): 66% | Activity (ZR-75-1): Active | Activity [8]: Non-toxic | Activity [11]: Non-toxic | Activity [18]: Non-toxic | Activity (LCLC-97TM1): Active | Activity [25]: Non-toxic | inhibition (INH) (MDA-MB-436): 0% | inhibition (INH) [27]: 30% | Activity [28]: Non-toxic | inhibition (INH) (HCC1428): 51%
